Measurements published in PubChem BioAssay AID624269 (Broad Institute, 2012).
Activity calls are given as the source filed them. How the calls were made is not given here.

Columns and labels:
[1] = Vibrio cholerae BH1651 luxOD47E, luciferase light induction, confirmatory dose response (AID 624269); settings: Vibrio cholerae BH1651 luxOD47E, luciferase light induction, 6 h
[2] = test system: Vibrio cholerae BH1651 luxOD47E, luciferase light induction, 6 h; experiment: as above

SMILES	activation ([1]; at 35 µM (top of the series))	further results
COc1ccccc1NC(=O)COC(=O)c1oc2ccccc2c1C	0% (inactive)	–
CCCn1nnnc1NCc1ccc(N2CCCC2)cc1	-50% (inactive)	–
O=C(Nc1nnc(-c2ccc3c(c2)OCCO3)o1)C1CCCCC1	–	AC40 [2]: 0.865 nM
Cc1ccc2cc3c(NC(=O)c4ccco4)nn(C)c3nc2c1	–	AC40 [2]: > 35000 nM (inactive)
CCCn1nnnc1NCc1ccc(C(C)C)cc1	33.3% (inactive)	–
COc1ccccc1NC(=O)COC(=O)c1ccc(C)cc1	0% (inactive)	–
CCCn1nnnc1NCc1ccc(N(CC)CC)cc1	0% (inactive)	–
COc1ccc(Cl)cc1NC(=O)COC(=O)c1ccc(C)o1	0% (inactive)	–
Cc1ccc(OCCNC(=O)c2cccc(C)c2)cc1	–	AC40 [2]: 312 nM
Cc1c(Cl)cccc1-n1cnc(=O)c2ccccc21	50% (inactive)	–
CCOc1ccc(Nc2ccc3nonc3c2[N+](=O)[O-])cc1	0% (inactive)	–
CCn1c(CC(=O)Nc2cccc(Cl)c2Cl)nnc1SCCOc1ccc(OC)cc1	-50% (inactive)	–
CCCn1nnnc1NCc1ccccc1Cl	–	activation ([1]; at 8 µM (top of the series)): 0% (inactive)
Cc1ccc(CC(=O)NC2CCCC2)cc1	0% (inactive)	–
O=c1ncn(-c2cccc(Cl)c2)c2ccccc12	–	activation ([1]; at 8 µM (top of the series)): 0% (inactive)
CCn1nnc(NCc2ccc(C)cc2)n1	0% (inactive)	–
CCn1nnnc1NCc1ccc(N2CCCC2)cc1	66.7% (inactive)	–
O=C(Cc1ccc(-c2ccccc2)cc1)NC1CCCC1	–	AC40 [2]: 239 nM
COc1ccccc1NC(=O)COC(=O)c1cc2c(s1)CCC2	0% (inactive)	–
CCC(C)NC(=O)Cc1ccc(-c2ccccc2)cc1 (stereo not given)	-33.3% (inactive)	–
